From patent US4177269A, “Novel 17-esters of 17α-hydroxy gestogens, compositions containing such compounds, processes for their preparation and methods of treatment therewith” (Aktiebolaget Leo, priority 1976, dated 1979)

Key:
[1] = tested on: Hepatome AH 130; assay: Hepatome AH 130 tumour growth inhibition in rats; format: in vivo, Sprague-Dawley rats; settings: one i.p. injection, result in words
Excerpt: (§1) LD50 is the dose that causes a 50 percent lethality of the animals, and ED50 is the dose that causes a 50 percent reduction of tumour size.
(§2) The experimental design and the interpretation of the results are in accordance with the standards set by the CCNSC (Cancer Chemotherpy Reports, January 1959 and December 1962).
(§3) Experimental animals: Sprague-Dawley rats.
Tumour implant: 5 × 10^6 tumour cells i.p.
(§4) Therapy: One injection i.p. on the day following implanta-
(§5) Termination: The animals are killed on the 8th day.
(§6) Evaluation: Weights of tumours of test animals are compared
(§7) with those of control animals.

[2] = tested on: Walker carcinosarcoma 256; assay: Walker carcinosarcoma 256 tumour growth inhibition in rats; format: in vivo, Sprague-Dawley rats; settings: daily p.o. for 5 days, result in words
Excerpt: as §1, §2
Walker carcinosarcoma 256.
as §3
Tumour implant: Tumour pieces with 2-4 mm diameter, sub-
Therapy: Daily p.o. administration for 5 days starting on
the day following implantation.
Termination: The animals are killed on the 9th day.
as §6, §7

[3] = tested on: Ehrlich ascites tumour, ELD hyperdiploid; assay: Ehrlich ascites tumour, ELD hyperdiploid (46 chromosomes), growth inhibition in mice; format: in vivo, SPF NMRI mice; settings: one i.p. injection, result in words
Excerpt: as §2
Ehrlich ascites tumour, ELD hyperdiploid
Experimental animals: SPF NMRI mice.
Tumour implant: 2 × 10^6 tumour cells i.p.
as §4, §5
Evaluation: Weight of tumours of test animals compared with
those of control animals.

## CC(=O)[C@@]1(OC(=O)COC(=O)Oc2ccc(N(CCCl)CCCl)cc2)[C@H](C)C[C@H]2[C@@H]3C=C(Cl)C4=CC(=O)CC[C@]4(C)[C@H]3CC[C@@]21C [5:3, 6-chloro-17α-/4-(N,N-bis(2-chloroethyl)amino)phenoxycarbonyloxyacetoxy/-16α-methylpregna-4,6-diene-3,20-dione]
[1]
  antitumour activity: exhibit antitumour activity

## CC(=O)[C@@]1(OC(=O)CCCOC(=O)CCCc2ccc(N(CCCl)CCCl)cc2)CC[C@H]2[C@@H]3C=C(Cl)C4=CC(=O)[C@@H]5C[C@@H]5[C@]4(C)[C@H]3CC[C@@]21C [3:24, 6-chloro-17α-[4-(4-(4-(N,N-bis(2-chloroethyl)amino)phenyl)butanoyloxy)butanoyloxy]-1α,2α-methylenepregna-4,6-diene-3,20-dione]
[1]
  antitumour activity: exhibit antitumour activity

## CC(=O)[C@@]1(OC(=O)CCCNC(=O)Cc2ccc(N(CCCl)CCCl)cc2)CC[C@H]2[C@@H]3CCC4=CC(=O)CC[C@]4(C)[C@H]3CC[C@@]21C [6:1, 17α-/4-(4-(N,N-bis(2-chloroethyl)amino)phenylacetylamino)butanoyloxy/pregn-4-ene-3,20-dione]
[2]
  antitumour activity: exhibit antitumour activity
[3]
  antitumour activity: exhibit antitumour activity

## CC(=O)[C@@]1(OC(=O)CCCCNC(=O)c2ccc(C)c(N(CCBr)CCBr)c2)CC[C@H]2[C@@H]3C[C@H](F)C4=CC(=O)CC[C@]4(C)[C@H]3CC[C@@]21C [6:3, 17α-/5-(3-(N,N-bis(2-bromoethyl)amino)-4-methylbenzoylamino)pentanoyloxy/-6α-fluoropregn-4-ene-3,20-dione]
[1]
  antitumour activity: exhibit antitumour activity

## C=C1C[C@H]2[C@@H]3C=C(Cl)C4=CC(=O)CC[C@]4(C)[C@H]3CC[C@]2(C)[C@@]1(OC(=O)COC(=O)Nc1ccc(N(CCCl)CCCl)cc1OC)C(C)=O [5:2, 6-chloro-17α-/4-(N,N-bis(2-chloroethyl)amino)-2-methoxyphenylcarbamoyloxyacetoxy/-16-methylenepregna-4,6-diene-3,20-dione]
[1]
  antitumour activity: exhibit antitumour activity

## CC(=O)N[C@@H](Cc1ccc(N(CCCl)CCCl)cc1)C(=O)OCC(=O)O[C@]1(C(C)=O)CC[C@H]2[C@@H]3CCC4=CC(=O)CC[C@]4(C)[C@H]3CC[C@@]21C [3:14, 17-[(2S)-2-acetamido-3-(4-(N,N-bis(2-chloroethyl)amino)phenyl)propanoyloxyacetoxy]pregn-4-ene-3,20-dione]
[2]
  antitumour activity: exhibit antitumour activity
[3]
  antitumour activity: exhibit antitumour activity

## CC(=O)[C@@]1(OC(=O)COC(=O)c2ccc(Cl)c(N(CCCl)CCCl)c2)CC[C@H]2[C@@H]3C[C@H](F)C4=CC(=O)CC[C@]4(C)[C@H]3CC[C@@]21C [3:25, 17α-[4-chloro-3-(N,N-bis(2-chloroethyl)amino)benzoyloxyacetoxy]-6α-fluoropregn-4-ene-3,20-dione]
[1]
  antitumour activity: exhibit antitumour activity

## CC(=O)[C@@]1(OC(=O)C(C)OC(=O)CCCCc2ccc(N(CCCl)CCCl)cc2)CC[C@H]2[C@@H]3C=C(Cl)C4=CC(=O)CC[C@]4(C)[C@H]3CC[C@@]21C (stereo partly drawn) [3:8, 6-chloro-17α-/2-(5-(4-(N,N-bis(2-chloroethyl)amino)phenyl)pentanoyloxy)propanoyloxy/pregna-4,6-diene-3,20-dione]
[3]
  antitumour activity: exhibit antitumour activity
[1]
  antitumour activity: exhibit antitumour activity

## CC(=O)[C@@]1(OC(=O)CNC(=O)c2ccc(C)c(N(CC(C)Cl)CC(C)Cl)c2)CC[C@H]2[C@@H]3C[C@H](C)C4=CC(=O)CC[C@]4(C)[C@H]3CC[C@@]21C (stereo partly drawn) [4:2, 17α-/3-(N,N-bis(2-chloropropyl)amino)-4-methylbenzoylaminoacetoxy/-6α-methylpregn-4-ene-3,20-dione]
[1]
  antitumour activity: exhibit antitumour activity

## CC(=O)[C@@]1(OC(=O)COC(=O)CCOc2ccc(N(CCCl)CCCl)cc2)CC[C@H]2[C@@H]3CCC4=CC(=O)CC[C@]4(C)[C@H]3CC[C@@]21C [3:26, 17α-[3-(4-(N,N-bis(2-chloroethyl)amino)phenoxy)propionyloxyacetoxy]pregn-4-ene-3,20-dione]
[1]
  antitumour activity: exhibit antitumour activity

## CC(=O)[C@@]1(OC(=O)CCCNC(=O)c2ccc(C)c(N(CCCl)CCCl)c2)CC[C@H]2[C@@H]3CCC4=CC(=O)CC[C@]4(C)[C@H]3CC[C@@]21C [6:4]
[3]
  antitumour activity: exhibit antitumour activity
[1]
  antitumour activity: exhibit antitumour activity

## CC(=O)[C@@]1(OC(=O)CCCCOC(=O)C(N)Cc2ccc(N(CCCl)CCCl)cc2)CC[C@H]2[C@@H]3C[C@H](F)C4=CC(=O)CC[C@]4(C)[C@H]3CC[C@@]21C (stereo partly drawn) [3:10, 17α-/5-(2-amino-3-(4-(N,N-bis(2-chloroethyl)amino)phenyl)propanoyloxy)pentanoyloxy/-6α-fluoropregn-4-ene-3,20-dione]
[1]
  antitumour activity: exhibit antitumour activity

## CC(=O)[C@@]1(OC(=O)C(C)OC(=O)/C=C/c2ccccc2N(CCCl)CCCl)CC[C@H]2[C@@H]3C=C(C)C4=CC(=O)CC[C@]4(C)[C@H]3CC[C@@]21C (stereo partly drawn) [3:9, 17α-/2-((2E)-3-(2-(N,N-bis(2-chloroethyl)amino)phenyl)propenoyloxy)propanoyloxy/-6-methylpregna-4,6-diene-3,20-dione]
[3]
  antitumour activity: exhibit antitumour activity
[1]
  antitumour activity: exhibit antitumour activity

## CC(=O)[C@@]1(OC(=O)COC(=O)[C@@H](N)Cc2cccc(N(CCCl)CCCl)c2)CC[C@H]2[C@@H]3CCC4=CC(=O)CC[C@]4(C)[C@H]3CC[C@@]21C [3:19, 17-[(2S)-2-amino-3-(3-(N,N-bis(2-chloroethyl)amino)phenyl)propanoyloxyacetoxy]pregn-4-ene-3,20-dione]
[1]
  antitumour activity: exhibit antitumour activity

## CC(=O)N[C@@H](Cc1ccc(N(CCCl)CCCl)cc1)C(=O)OCCCC(=O)O[C@]1(C(C)=O)CC[C@H]2[C@@H]3CCC4=CC(=O)CC[C@]4(C)[C@H]3CC[C@@]21C [3:15, 17-[4-((2S)-2-acetamido-3-(4-(N,N-bis(2-chloroethyl)amino)phenyl)propanoyloxy)butanoyloxy]pregn-4-ene-3,20-dione]
[1]
  antitumour activity: exhibit antitumour activity

## CC(=O)[C@@]1(OC(=O)CCCNC(=O)C(C)(C)c2ccc(N(CCCl)CCCl)cc2)CC[C@H]2[C@@H]3CCC4=CC(=O)CC[C@@H]4[C@H]3CC[C@@]21C [6:2, 17α-/4-(2-(4-(N,N-bis(2-chloroethyl)amino)phenyl)-2-methylpropanoylamino)butyanoyloxy/-19-norpregn-4-ene-3,20-dione]
[1]
  antitumour activity: exhibit antitumour activity

## CC(=O)[C@@]1(OC(=O)COC(=O)Oc2ccc(N(CCCl)CCCl)cc2)CC[C@H]2[C@@H]3CCC4=CC(=O)CC[C@]4(C)[C@H]3CC[C@@]21C [5:4, 17α-[4-(N,N-bis(2-chloroethyl)amino)phenoxycarbonyloxyacetoxy]pregn-4-ene-3,20-dione]
[3]
  antitumour activity: exhibit antitumour activity
[1]
  antitumour activity: exhibit antitumour activity

## CC(=O)[C@@]1(OC(=O)COC(=O)[C@@H](N)Cc2ccccc2N(CCCl)CCCl)CC[C@H]2[C@@H]3CCC4=CC(=O)CC[C@]4(C)[C@H]3CC[C@@]21C [3:20, 17-[(2S)-2-amino-3-(2-(N,N-bis(2-chloroethyl)amino)phenyl)propanoyloxyacetoxy]pregn-4-ene-3,20-dione]
[1]
  antitumour activity: exhibit antitumour activity

## CC(=O)[C@@]1(OC(=O)CCCOC(=O)c2ccc(C)c(N(CCCl)CCCl)c2)CC[C@H]2[C@@H]3C=C(C)C4=CC(=O)CC[C@]4(C)[C@H]3CC[C@@]21C [3:23, 17α-[4-(3-(N,N-bis(2-chloroethyl)amino)-4-methylbenzoyloxy)butanoyloxy]-6-methylpregna-4,6-diene-3,20-dione]
[1]
  antitumour activity: exhibit antitumour activity

## CC(=O)[C@@]1(OC(=O)COC(=O)c2ccc(C)c(N(CCCl)CCCl)c2)CC[C@H]2[C@@H]3C=C(Cl)C4=CC(=O)CC[C@]4(C)[C@H]3CC[C@@]21C [3:18, 6-chloro-17α-[3-(N,N-bis(2-chloroethyl)amino)-4-methylbenzoyloxyacetoxy]pregna-4,6-diene-3,20-dione]
[2]
  antitumour activity: exhibit antitumour activity

## CC(=O)[C@@]1(OC(=O)CCCOC(=O)[C@@H](N)Cc2ccc(N(CCCl)CCCl)cc2)CC[C@H]2[C@@H]3CCC4=CC(=O)CC[C@]4(C)[C@H]3CC[C@@]21C [3:13, 17-[4-((2S)-2-amino-3-(4-(N,N-bis(2-chloroethyl)amino)phenyl)propanoyloxy)butanoyloxy]pregn-4-ene-3,20-dione]
[1]
  antitumour activity: exhibit antitumour activity

## CC(=O)[C@@]1(OC(=O)CCCOC(=O)CCCc2ccc(N(CCCl)CCCl)cc2)CC[C@H]2[C@@H]3C[C@H](C)C4=CC(=O)CC[C@]4(C)[C@H]3CC[C@@]21C [3:21, 17α-[4-(4-(4-(N,N-bis(2-chloroethyl)amino)phenyl)butanoyloxy)butanoyloxy]-6α-methylpregn-4-ene-3,20-dione]
[2]
  antitumour activity: exhibit antitumour activity

## CC(=O)[C@@]1(OC(=O)COC(=O)Cc2ccc(N(CCCl)CCCl)cc2)CC[C@H]2[C@@H]3C=C(C)C4=CC(=O)CC[C@]4(C)[C@H]3CC[C@@]21C [3:17, 17α-[4-(N,N-bis(2-chloroethyl)amino)phenylacetoxyacetoxy]-6-methylpregna-4,6-diene-3,20-dione]
[1]
  antitumour activity: exhibit antitumour activity
